Consider 35 molecules from patent US10858339B2, “Aryl cyclopropyl-amino-isoquinolinyl amide compounds” (priority 2017, dated 2020).

In one assay the target is Rho Kinase. The assay can be described thus: ROCK kinase inhibition assay (Rho Kinase Activity, isoform not given). Type of assay: biochemical. Particulars: Table 15, mostly given as ranges. The protocol: All compounds were initially prepared as 10 mM stocks in anhydrous dimethylsulfoxide (DMSO). A 20 μl aliquot of the 10 mM solutions was transferred to individual wells in column 1 of a 96-well polypropylene microtiter plate (Corning #3363) and diluted with DMSO to give a final compound concentration of 4 mM. Test compounds were then serially diluted 1:5 in DMSO for an 11-point concentration response and further diluted in the assay buffer bringing all compound concentrations to a final range of 100 μM to […] in 2.5% DMSO. The assay was performed in white 96-well, flat-bottom, half-area, non-binding assay plate (Corning #3642) in assay buffer consisting of 20 mM HEPES (pH 7.5), 10 mM MgCl2*6H2O, 100 μM sodium orthovanadate, 0.05% CHAPS and 0.1% bovine serum albumin. A 10 μL aliquot of compound from each well of the intermediate dilution plate and 20 μL of a 2× substrate/enzyme solution containing acceptor substrate (800 nM RSK2 peptide […] (SEQ ID NO: 1)), ROCK2 enzyme (10 nM), or ROCK1 enzyme, and 1,4-Dithiothreitol (DTT, 2 uM) were added to all wells. The reaction was initiated by the addition of 10 μL of 4× stock solution ATP (2 μM). Reactions were thoroughly mixed manually, covered and allowed to incubate at room temperature for 75 min. Protein kinase activity was quantitated using Promega's KINASE-GLO™ luminescent Kinase Assay Kit according to the manufacturer's directions. ATP concentrations remaining in Test wells following the termination of the enzymatic reaction were compared against control wells containing equivalent amounts of DMSO containing no inhibitor (CTRL). […] Percent of Control (POC) values were determined for each concentration of compound tested according to the equation: POC=((Test well value−BKG)/(CTRL−BKG))*100
IC50 values were converted to K; […]

For another assay, the target named is JAK2 (Homo sapiens, UniProt O60674). Nature of the assay: JAK kinase assay, JAK2 enzyme.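 On all read-outs here: JAK2 kinase reaction run 75 min at room temperature, leftover ATP read by Kinase-Glo luminescence, 11-point dilution series in 2.5% DMSO, percent of inhibitor-free DMSO control.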 Type of assay: biochemical. The settings on record: for pKi: Table 15, in brackets in the activity cell, read-out: JAK2 activity.

pKi: −log10 of the molar value.

JAK2, sequence (O60674 whole entry, species assumed): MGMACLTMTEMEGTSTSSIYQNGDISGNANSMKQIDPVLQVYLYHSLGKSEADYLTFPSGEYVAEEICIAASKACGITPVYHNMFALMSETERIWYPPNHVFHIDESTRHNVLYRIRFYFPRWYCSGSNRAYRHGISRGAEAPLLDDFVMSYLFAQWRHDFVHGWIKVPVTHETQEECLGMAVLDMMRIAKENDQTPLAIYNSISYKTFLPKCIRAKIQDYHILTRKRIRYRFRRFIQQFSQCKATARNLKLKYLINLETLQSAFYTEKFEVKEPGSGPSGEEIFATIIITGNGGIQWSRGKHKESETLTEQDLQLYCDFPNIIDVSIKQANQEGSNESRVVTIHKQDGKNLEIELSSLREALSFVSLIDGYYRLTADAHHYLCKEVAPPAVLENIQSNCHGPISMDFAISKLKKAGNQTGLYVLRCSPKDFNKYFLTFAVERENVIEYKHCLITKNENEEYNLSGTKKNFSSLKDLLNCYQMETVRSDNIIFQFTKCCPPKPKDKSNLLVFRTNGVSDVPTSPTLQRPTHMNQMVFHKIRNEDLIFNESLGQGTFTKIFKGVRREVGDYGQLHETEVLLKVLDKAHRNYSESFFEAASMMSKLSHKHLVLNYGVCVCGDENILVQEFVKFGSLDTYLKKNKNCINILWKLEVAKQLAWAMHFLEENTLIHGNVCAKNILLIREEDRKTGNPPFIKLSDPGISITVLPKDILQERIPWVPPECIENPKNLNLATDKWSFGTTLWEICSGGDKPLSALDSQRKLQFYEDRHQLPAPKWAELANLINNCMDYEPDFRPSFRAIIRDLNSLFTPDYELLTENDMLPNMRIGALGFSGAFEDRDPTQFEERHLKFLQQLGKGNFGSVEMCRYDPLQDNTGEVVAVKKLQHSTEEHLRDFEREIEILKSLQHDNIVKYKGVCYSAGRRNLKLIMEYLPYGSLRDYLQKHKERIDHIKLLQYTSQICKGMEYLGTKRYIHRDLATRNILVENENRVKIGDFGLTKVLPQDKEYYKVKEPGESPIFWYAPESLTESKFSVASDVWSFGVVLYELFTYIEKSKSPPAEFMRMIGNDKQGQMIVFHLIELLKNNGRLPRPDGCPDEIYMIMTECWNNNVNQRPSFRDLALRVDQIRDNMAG

For `CC(C)(C)OC(=O)c1ccc([C@@H]2C[C@H]2C(=O)Nc2ccc3cnccc3c2)c(F)c1` (relative stereo) [Example E191, trans-tert-butyl 3-fluoro-4-(2-(isoquinolin-6-ylcarbamoyl)cyclopropyl)benzoate], the figures for the pKi at Rho Kinase and on JAK2 were 6.73 to 6.90 and 5.52, respectively.

Regarding `COc1ccc(CNC(=O)c2ccc([C@@H]3C[C@H]3C(=O)Nc3ccc4cnccc4c3)c(F)c2)cc1` (relative stereo) [Example E193, trans-3-fluoro-4-(2-(isoquinolin-6-ylcarbamoyl)cyclopropyl)-N-(4-methoxybenzyl)benzamide], the pKi at Rho Kinase is 8.10 to 8.22; at JAK2 it was 6.96.

With `O=C(Nc1ccc2cnccc2c1)[C@@H]1C[C@H]1c1ccc(I)cc1` (relative stereo) [Example E251, rel-(1R,2R)-2-(4-iodophenyl)-N-(isoquinolin-6-yl)cyclopropane-1-carboxamide], the pKi was 6.40 to 6.82 at Rho Kinase and 6.10 to 6.30 on JAK2.

Regarding `CC(C)(C)OC(=O)N1CCCC1CNC(=O)c1ccc(C2CC2C(=O)Nc2ccc3cnccc3c2)cc1` (stereo not shown) [Example 19.1], the pKi was 7.22 to 7.52 on Rho Kinase and 5.46 to 5.82 on JAK2.

For the molecule `O=C(NCc1ccccn1)c1ccc(C2CC2C(=O)Nc2ccc3cnccc3c2)cc1` (stereo not shown) [Example E9], the pKi on Rho Kinase was 8.30 to 8.52; on JAK2, 7.00 to 7.19.

As to `O=C(Nc1ccncc1)c1ccc(C2CC2C(=O)Nc2ccc3cnccc3c2)cc1` (stereo not shown) [Example E12], the pKi at Rho Kinase is 8.40 to 9.00; on JAK2, 6.40.

Turning to `O=C(NCc1ccc(C(F)(F)F)cc1)c1ccc(C2CC2C(=O)Nc2ccc3cnccc3c2)cc1` (stereo not shown) [Example E16], the results for the pKi at Rho Kinase and on JAK2 were 7.12 to 8.30 and 5.05 to 5.60, respectively.

Take `O=C(Nc1ccc2cnccc2c1)c1ccc(C2CC2C(=O)Nc2ccc3cnccc3c2)cc1` (stereo not shown) [Example E18]: the values for the pKi at Rho Kinase and at JAK2 were 8.10 to 9.10 and 5.92 to 6.00, respectively.

Regarding `O=C(NCC1CCCN1)c1ccc(C2CC2C(=O)Nc2ccc3cnccc3c2)cc1` (stereo not shown) [Example E19.2], the results for the pKi on Rho Kinase and on JAK2 were 7.92 to 8.22 and 6.46 to 6.52, respectively.

Take `CC(C)(C)OC(=O)N1CCC(CNC(=O)c2ccc(C3CC3C(=O)Nc3ccc4cnccc4c3)cc2)C1` (stereo not shown) [Example E20.1]: the pKi at Rho Kinase was 8.70 to 9.30; at JAK2 it was 5.70 to 6.15.

For `O=C(NCC1CCNC1)c1ccc(C2CC2C(=O)Nc2ccc3cnccc3c2)cc1` (stereo not shown) [Example E20.2], the pKi at Rho Kinase was 8.22 to 8.40; at JAK2, 6.82 to 7.57.

Take `CC(C)(C)OC(=O)N1CCC(CNC(=O)c2ccc(C3CC3C(=O)Nc3ccc4cnccc4c3)cc2)CC1` (stereo not shown) [Example E29.1]: the results for the pKi at Rho Kinase and on JAK2 were 9.00 to 9.30 and 5.22 to 6.00, respectively.

In the case of `O=C(NCc1ccccn1)c1ccc(C2CC2C(=O)Nc2ccc3c(O)nccc3c2)cc1` (stereo not shown) [Example E31], the pKi was 8.15 to 8.30 at Rho Kinase and 6.24 to 6.43 on JAK2.

On to `O=C(NCc1cccnc1)c1ccc(C2CC2C(=O)Nc2cc3ccncc3cc2Br)cc1` (stereo not shown) [Example E32], for which the pKi at Rho Kinase was 8.35 to 8.60; on JAK2, 5.89 to 6.40.

`O=C(NCc1cccnc1)c1ccc(C2CC2C(=O)Nc2ccc3cncc(F)c3c2)cc1` (stereo not shown) [Example E33]: the pKi at Rho Kinase was 8.10 to 8.30; on JAK2, 6.96 to 7.12.

Take `Cc1cncc2ccc(NC(=O)C3CC3c3ccc(C(=O)NCc4cccnc4)cc3)cc12` (stereo not shown) [Example E34]: the pKi is 7.85 to 8.15 at Rho Kinase and 7.35 to 7.52 on JAK2.

Take `O=C(NCc1cccnc1)c1ccc(C2CC2C(=O)Nc2ccc3cnccc3c2F)cc1` (stereo not shown) [Example E35]: the pKi on Rho Kinase was 8.10 to 9.30; on JAK2, 6.02 to 6.52.

As to `CN(C)CCNC(=O)c1ccc(C2CC2C(=O)Nc2ccc3cnccc3c2)cc1` (stereo not shown) [Example E37], the values for the pKi on Rho Kinase and on JAK2 were 8.05 to 8.37 and 6.10, respectively.

Consider `O=C(NCCO)c1ccc(C2CC2C(=O)Nc2ccc3cnccc3c2)cc1` (stereo not shown) [Example E38], for which the pKi on Rho Kinase was 8.02 to 8.15; on JAK2 it was 6.87.

Consider `O=C(NCCN1CCCCC1)c1ccc(C2CC2C(=O)Nc2ccc3cnccc3c2)cc1` (stereo not shown) [Example E39], for which the pKi is 8.15 to 8.30 on Rho Kinase and 6.40 at JAK2.

In the case of `O=C(NCc1ccccn1)c1ccc([C@@H]2C[C@H]2C(=O)Nc2ccc3cnccc3c2)cc1` [Example E54, 4-((1R,2R)-2-(isoquinolin-6-ylcarbamoyl)cyclopropyl)-N-(pyridin-2-ylmethyl)benzamide], the pKi at Rho Kinase is 8.70 to 9.00; on JAK2, 7.05 to 7.82.

Molecule `O=C(NCc1ccccn1)c1ccc([C@H]2C[C@@H]2C(=O)Nc2ccc3cnccc3c2)cc1` [Example E55] had a pKi at Rho Kinase of 4.28 to 4.92. For the same molecule, the JAK2 activity entry at JAK2 is “inactive”.

As for `O=C(NCc1cccnc1)c1ccc([C@@H]2C[C@H]2C(=O)Nc2ccc3cnccc3c2F)cc1` [Example E56.1], the pKi is 9.30 to 10.00 on Rho Kinase and 7.12 to 7.40 on JAK2.

Take `O=C(NCc1cccnc1)c1ccc([C@@H]2C[C@H]2C(=O)Nc2ccc3cnccc3c2)cc1` [Example E56]: the pKi was 8.52 to 9.30 on Rho Kinase and 6.92 to 7.40 at JAK2.

Take `CC(C)(C)OC(=O)N1CCC[C@@H](CNC(=O)c2ccc([C@@H]3C[C@H]3C(=O)Nc3ccc4cnccc4c3)cc2)C1` [Example E57.1]: the pKi on Rho Kinase was 9.00 to 9.82; on JAK2, 7.19 to 7.35.

On to `O=C(NC[C@@H]1CCCNC1)c1ccc([C@@H]2C[C@H]2C(=O)Nc2ccc3cnccc3c2)cc1` [Example E57.2], for which the pKi at Rho Kinase was 9.00 to 10.00; at JAK2 it was 8.15.

The molecule `O=C(OCc1ccccc1)c1ccc(C2CC2C(=O)Nc2ccc3c(O)nccc3c2)cc1` (stereo not shown) [Example E100.1] gave a pKi on Rho Kinase of 7.60. Also, the JAK2 activity entry at JAK2 was “inactive”.

As to `O=C(OCc1ccccc1)c1ccc(C2CC2C(=O)Nc2cc3ccncc3cc2Cl)cc1` (stereo not shown) [Example E104.1], the pKi at Rho Kinase was 7.12 to 7.82. Moreover, at JAK2, the JAK2 activity result was “inactive”.

Turning to `O=C(OCc1ccccc1)c1ccc([C@@H]2C[C@H]2C(=O)Nc2ccc3cnccc3c2)cc1` [Example E115, benzyl 4-((1R,2R)-2-(isoquinolin-6-ylcarbamoyl)cyclopropyl)benzoate], the figures for the pKi at Rho Kinase and at JAK2 were 7.12 to 7.40 and 5.30 to 5.52, respectively.

Consider `O=C(O)c1ccc([C@@H]2C[C@H]2C(=O)Nc2ccc3cnccc3c2)cc1` [Example E116, 4-((1R,2R)-2-(isoquinolin-6-ylcarbamoyl)cyclopropyl)benzoic acid], for which the pKi is 6.40 to 7.00 on Rho Kinase and 6.15 to 6.40 at JAK2.

For the molecule `O=C(Nc1ccccc1Cl)OCc1ccc(C2CC2C(=O)Nc2ccc3cnccc3c2)cc1` (stereo not shown) [Example E143], the pKi on Rho Kinase was 6.60 to 6.72; at JAK2 it was 5.57 to 5.89.

On to `C[C@@H]1OC(c2ccc(C3CC3C(=O)Nc3ccc4cnccc4c3)cc2)O[C@@H]1C` (stereo partly drawn) [Example E158, trans-2-(4-((4S,5S)-4,5-dimethyl-1,3-dioxolan-2-yl)phenyl)-N-(isoquinolin-6-yl)cyclopropane-1-carboxamide], for which the pKi was 6.67 to 6.78 on Rho Kinase and 6.00 on JAK2.

For `O=C(NCc1cccnc1)c1cccc(C2CC2C(=O)Nc2ccc3cnccc3c2)c1` (stereo not shown) [Example E173], the results for the pKi on Rho Kinase and at JAK2 were 9.00 to 9.15 and 6.70, respectively.

As for `CC(C)(C)OC(=O)c1ccc(C2CC2C(=O)Nc2ccc3cnccc3c2)cc1` (stereo not shown) [Example E191.1], the results for the pKi at Rho Kinase and at JAK2 were 6.81 to 6.98 and 5.28, respectively.

Turning to `O=C(NCc1ccccn1)c1ccc(C2CC2C(=O)Nc2ccc3cnccc3c2)c(F)c1` (stereo not shown) [Example E194], the pKi was 8.40 to 8.46 on Rho Kinase and 7.82 at JAK2.
